Consider one compound from patent publication US11247976B2, “Synthetic ligands that modulate the activity of the RhlR quorum sensing receptor” (Wisconsin Alumni Research Foundation, priority 2016, dated 2022).

As a reminder, the half-life is how long it takes for the measured level to halve. Higher therefore signals slow loss. As usually defined, the IC50 is the concentration that gives 50% inhibition.

Data set [1] can be described thus: Hydrolytic stability in buffers of varying pH by HPLC. It counts as physicochemical. The note with it: room temperature. The method, then: To assess the relative stability of the thiolactone and homoserine lactone moieties, stability studies were performed as reported previously,^53 with the following changes. Compounds RN22 and E22 (50 μM) were dissolved in either 1 mM 2-(N-morpholino)-ethanesulfonic acid (MES) buffer at pH 6, or 1 mM tris(hydroxymethyl)-aminomethane (TRIS) buffer at pH 7, pH 8, or pH 9. Solutions were placed static at room temperature, and 150 μL aliquots were taken every two hours for eight hours, then again at 24 hours. Samples were immediately separated via HPLC, and the area under the curve (AUC) at 220 nm was calculated and compared to the area at t=0. […] Degradation of both compounds to the hydrolysis product was confirmed via mass spectrometry of the resulting byproduct peak.
P. aeruginosa media is observed to become more alkaline over time, making the hydrolytic instability of the homoserine lactone head group a concern in developing AHL-type modulators for use in the wild-type organism. […] To evaluate their stability in a more direct assay, the stability of thiolactone RN22 relative to its lactone homolog E22 was monitored over time and at varying pH values using HPLC. The amount of compound RN22 remaining over 24 h was compared to E22. […] Degradation products were confirmed to be the hydrolyzed lactone head groups via mass spectroscopy.

The target of the next data set is T1, RhlR (Pseudomonas aeruginosa, UniProt P54292).
T1 construct: expressed in transfected cells; host or cells: E. coli JLD271 (ΔsdiA) with pJN105R2 (arabinose-induced) and pSC11-rhlI*
T1 sequence (P54292 whole entry): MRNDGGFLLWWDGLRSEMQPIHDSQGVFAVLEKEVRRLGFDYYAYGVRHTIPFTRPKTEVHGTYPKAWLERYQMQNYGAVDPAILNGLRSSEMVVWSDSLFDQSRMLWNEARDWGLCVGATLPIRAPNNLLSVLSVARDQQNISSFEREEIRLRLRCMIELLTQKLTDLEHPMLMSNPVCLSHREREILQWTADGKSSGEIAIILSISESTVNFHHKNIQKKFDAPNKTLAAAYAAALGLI
Briefly: P. aeruginosa RhlR reporter antagonism assay vs 10 μM BHL (PAO-JP2/prhlI-LVAgfp). The format is cell-based. The protocol:
FIGS. 10A and B illustrate exemplary dose-response curves for RhlR antagonism in the E. coli JLD271/pJN105R2/pSC11-rhlI* reporter strain vs. 10 μM BHL (FIG. 10A) and in the P. aeruginosa PAO-JP2/prhlI-LVAgfp reporter strain vs. 10 μM BHL (FIG. 10B).
To evaluate the RhlR-modulatory activities of selected compounds in P. aeruginosa, the ΔlasIrhlI strain PAO-JP2 harboring plasmid prhlI-LVAgfp was used as previously reported.^38 Briefly, a subculture was prepared by diluting an overnight culture 1:100 in fresh LB and was grown to OD600=0.3. […] Subculture was treated with 100 nM OdDHL (to induce native expression of RhlR) by adding the appropriate amount of OdDHL stock solution in DMSO. The subculture was then dispensed ([…] aliquots) into each synthetic compound-containing well of the microtiter plate.
Plates were incubated at 37° C. for 6 h, and GFP production was monitored by using a Synergy 2 plate reader (λex=500 nm, λem=540 nm; BioTek, Winooski, Vt.) and quantified with Gen5 1.05 software (BioTek). The final OD600 for each well was measured to normalize GFP production to cell density. All synthetic compounds were tested in triplicate, and three separate trials were performed with unique cultures. Agonism dose-response analyses were performed by testing compounds over a range of concentrations with the RhlR reporter.

The next data set deals with T2, LasR (Pseudomonas aeruginosa, UniProt P25084).
T2 construct: expressed in transfected cells; host or cells: E. coli JLD271 (ΔsdiA) with pJN105L and pSC11
T2 sequence (P25084 whole entry): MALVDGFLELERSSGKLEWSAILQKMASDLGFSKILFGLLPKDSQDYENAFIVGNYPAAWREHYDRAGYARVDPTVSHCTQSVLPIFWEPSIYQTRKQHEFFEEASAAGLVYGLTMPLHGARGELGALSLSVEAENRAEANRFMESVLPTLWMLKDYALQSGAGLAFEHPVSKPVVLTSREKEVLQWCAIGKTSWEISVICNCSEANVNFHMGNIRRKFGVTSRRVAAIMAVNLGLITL
In words: Selectivity of RhlR antagonism over LasR antagonism (E. coli LasR reporter, vs 2 nM OdDHL). It counts as cell-based, P. aeruginosa. The following applies: RhlR % antagonism divided by LasR % antagonism. The method, then:
All media and reagents for bacterial culture were purchased from commercial sources. Bacteria were cultured in Luria-Bertani broth (LB) at 37° C. with shaking at 200 rpm unless otherwise noted. The bacterial reporter strains used for this study were (i) the heterologous E. coli strain JLD271 (ΔsdiA) harboring the RhlR expression plasmid pJN105R2 and the rhlI-lacZ transcriptional fusion reporter pSC11-rhlI*, (ii) the heterologous E. coli strain JLD271 (ΔsdiA) harboring the LasR expression plasmid pJN105L and the […] transcriptional fusion reporter pSC11, and (iii) the P. aeruginosa strain PAO-JP2 (ΔlasrhlI) harboring the rhlI-gfp transcriptional fusion reporter prhlI-LVAgfp. […]
To evaluate the modulatory activities of library compounds on RhlR and LasR using E. coli reporters, the strains JLD271/pJN105R2/pSC11-rhlI* and JLD271/pJN105L/pSC11 were used, respectively, as previously described.^38, 51 The following modifications were used in the RhlR agonism reporter assay, non-native compounds (10 μM or 1 mM) were compared to 1 mM BHL as the positive control. […] For RhlR agonism assays, activities of test compounds were measured relative to 1 mM BHL (the concentration required to induce a maximal level of RhlR activity). […] Activity was measured relative to 10 μM BHL. Inhibition was calculated by subtracting 100% from the relative activity value. […]

As to `O=C(COc1ccc(I)cc1)N[C@H]1CCSC1=O` [RN22], the half-life at 50 μM in data set [1] (pH 6, 1 mM MES buffer) was 44 days; in data set [1] (pH 7, 1 mM TRIS buffer), 47.2 days; in data set [1] (pH 8, 1 mM TRIS buffer), 9.88 days; in data set [1] (pH 9, 1 mM TRIS buffer), 2.18 days. In addition, the “concentration blocking native ligand activity by 50%, relative to EC50 of native ligand” value on RhlR (P. aeruginosa) was “less than 4 fold”. Besides, at RhlR (P. aeruginosa reporter vs 10 μM BHL), the “RhlR antagonist activity in words” value is listed as “maintained its strong inhibitory profile”. Further, at RhlR (P. aeruginosa reporter vs 10 μM BHL, read-out: IC50 for RhlR inhibition), the IC50 was found to be 31 µM. In addition, the “Maximum Inhibition (%)” value on RhlR (P. aeruginosa reporter, relative to activation of 10 μM BHL alone) is reported as 85%. Besides, the “Fold selectivity of RhlR antagonist over LasR antagonism” value is 74 fold on LasR (tested concentration 1 mM) and 1.5 fold on LasR (tested concentration 10 μm).
